Test results: patent US7226945B2 (AstraZeneca AB, priority 2000, dated 2007)
Where two headings read alike, the source gives them in different places.

Columns and labels:
[1] = target: T1, ER-β (Homo sapiens, UniProt Q92731); experiment: Estrogen receptor binding measurement (competition with [125I]-estradiol), ER-β; tables head the values "FP β-ER Ki"
T1 construct: made in house; host or cells: cell-free: TNT T7 Quick-Coupled rabbit reticulocyte lysate (Promega L1170)
Protocol: (§1) Receptor protein was prepared by in vitro transcription and translation of these plasmids using the TNT T7 Quick-Coupled reticulocyte lysate system (Promega Cat.#L1170). […] Programmed lysate was then aliquotted and stored frozen at −80° C.
(§2) Compounds were tested in duplicate at half-log concentrations ranging from 10 pM to 3 μM. Compounds were prepared as 1 mM stocks in DMSO, then diluted in the binding-assay buffer (in mM: 20 HEPES, 150 NaCl, 1 EDTA, 6 monothioglycerol and 10 Na2MoO4,; 10% wt/vol glycerol, and pH=7.9) to a series of […] concentrated, 20 μL aliquots in a 96-well plate. Receptor aliquots were thawed on ice, and appropriately diluted (see below) in binding assay buffer. Diluted receptor (30 μL/each) was added to each well. […] Plates containing the final assay mixture were mixed on a shaker for 2 min and incubated overnight (˜16 h) at 4° C.
(§3) Receptor-bound and unbound radioligand was separated by filtration over sephadex columns. Columns (45 μL bed volume) were prepared by adding dry column media (Pharmacia Cat#G-25) to 96-well column templates (Millipore MultiScreen Plates Cat#MAHVN4510). Columns were then saturated with 300 μL of binding-assay buffer and stored at 4° C. Prior to use, stored columns were spun for 10 minutes at 2000 RPM, then washed twice with 200 μL of fresh binding buffer. The binding-assay mixtures (50 μL/each) were then applied to the columns, and an additional elution volume of 35 μL was immediately applied to the column. Receptor-bound radioligand was then eluted from the column by centrifugation for 10 minutes at 2000 RPM. A scintillation cocktail (145 μL) was added to the eluted radioligand/receptor complex, and radio-label was measured by liquid scintillation counting.
(§4) The volume of receptor-programmed reticulocyte lysate to be added to the binding assay was determined independently from two measurements made on each batch of receptor prepared. First, Kis were determined for standard compounds using a series of dilutions of the receptor preparation. Scatchard analysis of ligand binding affinity was performed at the receptor dilutions that produced reported Kis for these compounds and an acceptable signal:noise ratio (˜10).

[2] = target: T2, ER-α (Homo sapiens, UniProt P03372); experiment: Estrogen receptor binding measurement (competition with [125I]-estradiol), ER-α; tables head the values "FP α-ER Ki"
T2 construct: made in house; host or cells: cell-free: TNT T7 Quick-Coupled rabbit reticulocyte lysate (Promega L1170)
T2 sequence (P03372 1-595): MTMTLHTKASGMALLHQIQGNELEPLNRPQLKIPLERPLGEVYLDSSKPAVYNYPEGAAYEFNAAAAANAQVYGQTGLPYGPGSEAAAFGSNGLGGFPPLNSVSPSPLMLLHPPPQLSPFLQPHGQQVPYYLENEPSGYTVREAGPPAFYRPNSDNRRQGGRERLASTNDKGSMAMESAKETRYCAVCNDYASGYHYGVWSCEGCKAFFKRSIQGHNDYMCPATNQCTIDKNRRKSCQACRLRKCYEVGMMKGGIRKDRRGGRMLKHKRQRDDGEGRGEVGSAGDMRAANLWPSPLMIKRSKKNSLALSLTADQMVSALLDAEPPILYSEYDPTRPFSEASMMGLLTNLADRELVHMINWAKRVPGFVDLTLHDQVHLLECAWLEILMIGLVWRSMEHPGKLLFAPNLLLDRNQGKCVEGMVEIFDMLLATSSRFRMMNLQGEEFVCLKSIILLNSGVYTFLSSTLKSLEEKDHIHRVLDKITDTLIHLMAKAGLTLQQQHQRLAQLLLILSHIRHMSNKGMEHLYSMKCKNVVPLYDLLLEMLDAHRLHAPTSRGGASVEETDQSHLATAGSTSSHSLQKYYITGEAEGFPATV
Protocol: as §1, §2, §3, §4

[3] = target: ER; experiment: Scatchard analysis of ligand binding affinity on receptor preparations; conditions: Scatchard analysis at chosen receptor dilutions; receptor subtype not specified; read-out: KD for [125I]-estradiol
Protocol: as §4

T1 sequence (Q92731 54-530 limits assumed): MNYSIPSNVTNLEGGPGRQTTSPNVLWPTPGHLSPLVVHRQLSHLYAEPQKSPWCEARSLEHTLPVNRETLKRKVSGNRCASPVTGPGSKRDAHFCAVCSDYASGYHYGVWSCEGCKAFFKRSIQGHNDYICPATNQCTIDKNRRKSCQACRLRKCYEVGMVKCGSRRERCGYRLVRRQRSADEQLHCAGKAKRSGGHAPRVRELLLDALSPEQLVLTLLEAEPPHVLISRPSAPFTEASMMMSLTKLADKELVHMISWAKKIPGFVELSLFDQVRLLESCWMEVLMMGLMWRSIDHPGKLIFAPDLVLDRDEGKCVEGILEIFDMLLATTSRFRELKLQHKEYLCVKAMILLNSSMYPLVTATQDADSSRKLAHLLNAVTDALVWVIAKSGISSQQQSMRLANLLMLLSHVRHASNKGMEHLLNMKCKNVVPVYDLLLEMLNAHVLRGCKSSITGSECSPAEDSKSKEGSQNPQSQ

SMILES	Selectivity ([1]; ER-α Ki / ER-β Ki)	Ki ([1]; read-out: FP β-ER Ki) [nM]	Ki ([2]; read-out: FP α-ER Ki) [nM]	Kd [3] [nM]	FP Sel. Ratio ([1]; ER-α Ki / ER-β Ki)	Ki ([1]; LOQ = 0.01 nM, upper limit 1000 nM, read-out: FP ER-β Ki) [nM]	Ki ([2]; LOQ = 0.01 nM, upper limit 1000 nM, read-out: FP ER-α Ki) [nM]
CSc1cc(O)cc2occ(-c3ccc(O)cc3)c(=O)c12 [Example 8, 7-Hydroxy-3-(4-hydroxyphenyl)-5-methylthio-4-oxo-4H-1-benzopyran]	7	84	563				
C[C@]12CC[C@@H]3c4ccc(O)cc4CC[C@H]3[C@@H]1C[C@@H](I)[C@@H]2O [[^125I]-estradiol, [^125I]-16α-iodo-3,17β-estradiol]				0.1 to 1			
Cc1oc2cc(O)cc(Cl)c2c(=O)c1-c1ccc(O)cc1 [Example 11]					32.8	46.1	≥ 1000
O=c1c(-c2ccc(O)cc2Cl)coc2cc(O)cc(Cl)c12 [Example 2, 5-Chloro-3-(2-chloro-4-hydroxyphenyl)-7-hydroxy-4-oxo-4H-1-benzopyran]	19	16	300				
Cc1cc(O)ccc1-c1coc2cc(O)cc(Cl)c2c1=O [Example 3, 5-chloro-7-hydroxy-3-(4-hydroxy-2-methylphenyl)-4-oxo-4H-1-benzopyran]	18	50	900				
O=c1c(-c2ccc(O)cc2)coc2cc(O)cc(Br)c12 [Example 5, 5-Bromo-7-hydroxy-3-(4-hydroxyphenyl)-4-oxo-4H-1-benzopyran]	90	2.8	251				
O=c1c(-c2ccc(O)cc2)coc2cc(O)cc(Cl)c12 [Example 1, 5-Chloro-7-hydroxy-3-(4-hydroxyphenyl)-4-oxo-4H-1 benzopyran]	139	4.3	600				
N#Cc1cc(O)cc2occ(-c3ccc(O)cc3)c(=O)c12 [Example 7, 5-Cyano-7-hydroxy-3-(4-hydroxyphenyl)-4-oxo-4H-1-benzopyran]	>39	58	> 1000				
O=c1c(-c2ccc(O)cc2)coc2cc(O)cc(I)c12 [Example 6, 7-Hydroxy-3-(4-hydroxyphenyl)-5-iodo-4-oxo-4H-1-benzopyran]	38	3.9	147				
Oc1ccc(C2COc3cc(O)cc(Cl)c3C2)cc1 (stereo not shown) [Example 10, 5-Chloro-7-hydroxy-3-(4 hydroxyphenyl)chroman]	6.4	2	13				
O=c1oc2cc(O)cc(Cl)c2cc1-c1ccc(O)cc1 [Example 9, 5-Chloro-7-hydroxy-3-(4-hydroxyphenyl)coumarin]	35	1.8	62				
O=c1c(-c2ccc(O)cc2)coc2cc(O)cc(F)c12 [Example 4, 5-Fluoro-7-hydroxy-3-(4-hydroxyphenyl)-4-oxo-4H-1-benzopyran]	>56	39	> 2200				
